Columns and labels:
CDK1/Cyclin B1 = CDK1/Cyclin B1 (Homo sapiens (Human), UniProt P06493); test: CDK1/Cyclin B1 ADP-Glo Kinase Assay; type: biochemical; details: 80 uM ATP
In short: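 Luminescent ADP-Glo detection of ADP produced over 90 min at room temperature. Enzyme complex 4.917 nM, pre-exposed 30 min to inhibitor; ATP 80 µM (near Km 78.6 µM), substrate 0.75 µM, HEPES pH 7.5, 2% DMSO. Fractional velocity fitted to 4-parameter IC50 equation.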

[1] = target: CDK2/Cyclin E1 full length (Homo sapiens (Human), UniProt P24941); test: CDK2/Cyclin E1 Full Length ADP-Glo Kinase Assay; type: biochemical; details: 20 uM ATP, read-out: CDK2/ CyclinE1 IC50
In short: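 ADP-Glo luminescence read-out of ADP formed by 0.328 nM wild-type full-length CDK2/Cyclin E1, 90 min at room temperature with 0.75 uM substrate and 20 uM ATP (Km 64.78 uM), after 30 min enzyme–inhibitor pre-incubation; 50 mM HEPES pH 7.5, 2% DMSO. Four-parameter IC50 fit.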

CDK4/Cyclin D1 = CDK4/Cyclin D1 (Homo sapiens (Human), UniProt P11802); test: CDK4/Cyclin D1 CHEF Assay (AQT0258 peptide); type: biochemical; details: 200 uM ATP, read-out: CDK4/ CyclinD1 AQT IC50
In short: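 CDK4/Cyclin D1 (2.5 nM) phosphorylating 10 uM Sox-labelled peptide AQT0258 with 200 uM ATP (Km 195.2 uM), 10 mM MgCl2, 2% DMSO, 54 mM HEPES pH 7.5. Enzyme and inhibitor pre-incubated 30 min, reaction 3 hrs at 22° C.; CHEF fluorescence (ex 360/em 485 nm), IC50 from fractional velocity, 4-parameter fit.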

CDK6/Cyclin D3 = CDK6/Cyclin D3 (Homo sapiens (Human), UniProt Q00534); test: CDK6/Cyclin D3 ADP-Glo Kinase Assay; type: biochemical; details: 100 uM ATP, read-out: CDK6/ CyclinD3 IC50
In short: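 Luminescent ADP-Glo read-out of ADP produced, used to fit IC50 (4-parameter equation on fractional velocity against inhibitor concentration). Kinase reaction: enzyme and inhibitor together 30 min, then ATP-containing substrate added for 90 min, all at room temperature.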

MCF-7 cells = test: Cell Growth Inhibition, MCF-7 (CellTiterGlo, 6 days); type: cell-based; details: Homo sapiens, MCF7, 144 h; MCF-7, 6-day treatment, CellTiterGlo 2.0
In short: (§1)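 Compounds were run in half-log series, usually 10–10,000 nM, with 500 cells/well of OVCAR-3 or MCF-7 in RPMI plus 10% FBS. After a 6-day culture at 37 °C, viability was read by CellTiterGlo luminescence. Inhibition relative to control was fitted (four-parameter, variable slope) for IC50.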

OVCAR-3 cells = test: Cell Growth Inhibition, OVCAR-3 (CellTiterGlo, 6 days); type: cell-based; details: Homo sapiens, 144 h; OVCAR-3, 6-day treatment, CellTiterGlo 2.0
In short: as §1

CDK1/Cyclin B1, sequence (P06493 whole entry): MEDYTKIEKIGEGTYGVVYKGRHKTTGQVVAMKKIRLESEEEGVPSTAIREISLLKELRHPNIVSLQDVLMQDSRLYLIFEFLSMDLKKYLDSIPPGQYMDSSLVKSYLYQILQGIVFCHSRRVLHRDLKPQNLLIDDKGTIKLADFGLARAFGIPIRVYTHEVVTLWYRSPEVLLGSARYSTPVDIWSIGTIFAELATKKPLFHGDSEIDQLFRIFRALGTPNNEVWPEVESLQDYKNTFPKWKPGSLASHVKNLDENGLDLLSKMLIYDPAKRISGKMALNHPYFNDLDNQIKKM
CDK1/Cyclin B1, sequence (P14635 whole entry partner): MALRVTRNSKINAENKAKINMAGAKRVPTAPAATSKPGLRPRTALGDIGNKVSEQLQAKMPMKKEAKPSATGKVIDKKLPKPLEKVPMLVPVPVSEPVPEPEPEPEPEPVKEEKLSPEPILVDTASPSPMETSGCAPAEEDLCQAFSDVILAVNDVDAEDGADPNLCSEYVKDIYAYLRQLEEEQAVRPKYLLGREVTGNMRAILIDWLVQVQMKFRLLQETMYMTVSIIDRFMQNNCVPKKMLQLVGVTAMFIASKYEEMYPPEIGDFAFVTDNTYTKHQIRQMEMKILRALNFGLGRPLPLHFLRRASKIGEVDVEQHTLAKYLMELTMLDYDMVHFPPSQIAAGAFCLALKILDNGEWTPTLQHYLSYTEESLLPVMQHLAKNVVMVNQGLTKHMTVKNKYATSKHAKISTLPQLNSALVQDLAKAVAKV
CDK4/Cyclin D1, sequence (P11802 whole entry): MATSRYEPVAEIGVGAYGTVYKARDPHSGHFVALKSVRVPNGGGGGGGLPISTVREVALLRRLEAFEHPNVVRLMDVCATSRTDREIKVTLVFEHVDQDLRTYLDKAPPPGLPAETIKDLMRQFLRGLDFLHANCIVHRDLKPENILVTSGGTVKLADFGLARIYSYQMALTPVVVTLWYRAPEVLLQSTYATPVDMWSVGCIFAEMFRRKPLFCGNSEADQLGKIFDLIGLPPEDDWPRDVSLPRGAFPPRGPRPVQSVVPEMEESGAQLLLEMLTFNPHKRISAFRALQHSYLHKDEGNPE
CDK4/Cyclin D1, sequence (P24385 whole entry partner): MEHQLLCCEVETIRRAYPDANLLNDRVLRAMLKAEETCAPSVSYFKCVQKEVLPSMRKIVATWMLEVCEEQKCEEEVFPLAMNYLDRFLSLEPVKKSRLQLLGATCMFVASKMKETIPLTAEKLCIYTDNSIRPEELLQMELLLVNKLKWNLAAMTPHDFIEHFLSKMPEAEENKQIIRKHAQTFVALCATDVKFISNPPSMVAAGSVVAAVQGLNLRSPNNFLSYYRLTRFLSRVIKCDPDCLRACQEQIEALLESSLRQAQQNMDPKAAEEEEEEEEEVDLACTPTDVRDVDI
CDK6/Cyclin D3, sequence (Q00534 whole entry): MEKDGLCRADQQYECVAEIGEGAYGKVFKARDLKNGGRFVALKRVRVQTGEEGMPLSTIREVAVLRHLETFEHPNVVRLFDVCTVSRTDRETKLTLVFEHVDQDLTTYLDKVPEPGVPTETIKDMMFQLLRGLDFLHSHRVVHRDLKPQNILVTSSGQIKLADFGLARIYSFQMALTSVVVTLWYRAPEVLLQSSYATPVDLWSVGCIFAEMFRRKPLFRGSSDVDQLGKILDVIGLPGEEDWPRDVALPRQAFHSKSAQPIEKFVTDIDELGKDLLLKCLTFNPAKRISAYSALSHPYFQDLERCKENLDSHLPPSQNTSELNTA
CDK6/Cyclin D3, sequence (P30281 whole entry partner): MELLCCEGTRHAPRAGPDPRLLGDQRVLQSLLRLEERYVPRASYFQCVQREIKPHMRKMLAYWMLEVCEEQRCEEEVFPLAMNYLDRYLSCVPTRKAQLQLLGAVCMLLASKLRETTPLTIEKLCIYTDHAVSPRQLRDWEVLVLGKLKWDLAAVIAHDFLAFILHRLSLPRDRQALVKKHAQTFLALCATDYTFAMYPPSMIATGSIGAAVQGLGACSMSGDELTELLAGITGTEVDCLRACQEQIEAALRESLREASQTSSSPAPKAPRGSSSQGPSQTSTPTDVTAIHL

Compound | IC50 (CDK1/Cyclin B1) [nM] | IC50 [1] [nM] | IC50 (CDK4/Cyclin D1) [nM] | IC50 (CDK6/Cyclin D3) [nM] | IC50 (MCF-7 cells) [nM] | IC50 (OVCAR-3 cells) [nM]
O=S(=O)(N1CCC(Nc2ncc3cc(C(F)F)cc(N4CC5(CCNC5)C4)c3n2)CC1)C1(C(F)F)CC1 [Example 93, 6-(difluoromethyl)-N-(1-((1-(difluoromethyl)cyclopropyl)sulfonyl)piperidin-4-yl)-8-(2,6-diazaspiro[3.4]octan-2-yl)quinazolin-2-amine] | < 200 | < 200 | < 200 | < 200 | 200 to 500 | < 200
CS(=O)(=O)N1CCC(Nc2ncc3cc(C(F)F)cc(N4CC5(CCNCC5(F)F)C4)c3n2)CC1 [Example 94, 8-(5,5-difluoro-2,7-diazaspiro[3.5]nonan-2-yl)-6-(difluoromethyl)-N-(1-(methylsulfonyl)piperidin-4-yl)quinazolin-2-amine] | < 200 | < 200 | < 200 | < 200 | 500 to 2000 | 500 to 2000
CC1(CS(=O)(=O)N2CCC(Nc3ncc4cc(C(F)F)cc(N5CC6(CCNC6)C5)c4n3)CC2)CC1 [Example 95, 6-(difluoromethyl)-N-(1-(((1-methylcyclopropyl)methyl)sulfonyl)piperidin-4-yl)-8-(2,6-diazaspiro[3.4]octan-2-yl)quinazolin-2-amine] | < 200 | < 200 | < 200 | < 200 | 500 to 2000 | 500 to 2000
CC1(CCS(=O)(=O)N2CCC(Nc3ncc4cc(C(F)F)cc(N5CC6(CCNC6)C5)c4n3)CC2)CC1 [Example 96, 6-(difluoromethyl)-N-(1-((2-(1-methylcyclopropyl)ethyl)sulfonyl)piperidin-4-yl)-8-(2,6-diazaspiro[3.4]octan-2-yl)quinazolin-2-amine] | < 200 | < 200 | < 200 | < 200 | 500 to 2000 | 500 to 2000
O=S(=O)(c1ccc(C(F)(F)F)nc1)N1CCC(Nc2ncc3cc(C(F)F)cc(N4CC5(CCNC5)C4)c3n2)CC1 [Example 97, 6-(difluoromethyl)-8-(2,6-diazaspiro[3.4]octan-2-yl)-N-(1-((6-(trifluoromethyl)pyridin-3-yl)sulfonyl)piperidin-4-yl)quinazolin-2-amine] | < 200 | < 200 | < 200 | < 200 | 200 to 500 | < 200
O=S(=O)(C1CC1)N1CCC(Nc2ncc3cc(C(F)F)cc(N4CC5(CNCCO5)C4)c3n2)CC1 [Example 98, N-(1-(cyclopropylsulfonyl)piperidin-4-yl)-6-(difluoromethyl)-8-(5-oxa-2,8-diazaspiro[3.5]nonan-2-yl)quinazolin-2-amine] | < 200 | < 200 | < 200 | < 200 | 200 to 500 | 500 to 2000
CS(=O)(=O)N1CCC(Nc2ncc3cccc(C4CC5(CCNC5)C4)c3n2)CC1 (stereo not drawn) [Example 99, N-(1-(methylsulfonyl)piperidin-4-yl)-8-(6-azaspiro[3.4]octan-2-yl)quinazolin-2-amine] | < 200 | < 200 | < 200 | < 200 | 500 to 2000 | 200 to 500
CS(=O)(=O)N1CCC(Nc2ncc3cc(C(F)F)cc(C4CC5(CCN(CC(F)F)C5)C4)c3n2)CC1 (stereo not drawn) [Example 100, 8-(6-(2,2-difluoroethyl)-6-azaspiro[3.4]octan-2-yl)-6-(difluoromethyl)-N-(1-(methylsulfonyl)piperidin-4-yl)quinazolin-2-amine] | < 200 | < 200 | < 200 | < 200 | 200 to 500 | 500 to 2000
CS(=O)(=O)N1CCC(Nc2ncc3cc(C(F)F)cc(C4CC5(CCN(CCC(F)(F)F)C5)C4)c3n2)CC1 (stereo not drawn) [Example 101, 6-(difluoromethyl)-N-(1-(methylsulfonyl)piperidin-4-yl)-8-(6-(3,3,3-trifluoropropyl)-6-azaspiro[3.4]octan-2-yl)quinazolin-2-amine] | < 200 | < 200 | < 200 | < 200 | 200 to 500 | 500 to 2000
CS(=O)(=O)N1CCC(Nc2ncc3cc(C(F)F)cc(C4CC5(CCN(C6COC6)C5)C4)c3n2)CC1 (stereo not drawn) [Example 102, 6-(difluoromethyl)-N-(1-(methylsulfonyl)piperidin-4-yl)-8-(6-(oxetan-3-yl)-6-azaspiro[3.4]octan-2-yl)quinazolin-2-amine] | < 200 | < 200 | < 200 | < 200 | 200 to 500 | 200 to 500
CC(C)(F)CN1CCC2(CC(c3cc(C(F)F)cc4cnc(NC5CCN(S(C)(=O)=O)CC5)nc34)C2)C1 (stereo not drawn) [Example 103, 6-(difluoromethyl)-8-(6-(2-fluoro-2-methylpropyl)-6-azaspiro[3.4]octan-2-yl)-N-(1-(methylsulfonyl)piperidin-4-yl)quinazolin-2-amine] | < 200 | < 200 | < 200 | < 200 | 200 to 500 | 500 to 2000
O=S(=O)(C1CC1)N1CCC(Nc2ncc3cc(C(F)F)cc(N4CC5(CNCC5F)C4)c3n2)CC1 (stereo not drawn) [Example 104, N-(1-(cyclopropylsulfonyl)piperidin-4-yl)-6-(difluoromethyl)-8-(8-fluoro-2,6-diazaspiro[3.4]octan-2-yl)quinazolin-2-amine] | < 200 | < 200 | < 200 | < 200 | 200 to 500 | 200 to 500
O=S(=O)(N1CCC(Nc2ncc3cccc(N4CC5(CNCCC5(F)F)C4)c3n2)CC1)C1(C(F)F)CC1 [Example 105, 8-(9,9-difluoro-2,6-diazaspiro[3.5]nonan-2-yl)-N-(1-((1-(difluoromethyl)cyclopropyl)sulfonyl)piperidin-4-yl)quinazolin-2-amine] | 200 to 500 | < 200 | < 200 | 200 to 500 | > 2000 | > 2000
CS(=O)(=O)N1CCC(Nc2ncc3cc(C(F)F)cc(C4CC5(CCN(CC(F)(F)CO)C5)C4)c3n2)CC1 (stereo not drawn) [Example 106, 3-(2-(6-(difluoromethyl)-2-((1-(methylsulfonyl)piperidin-4-yl)amino)quinazolin-8-yl)-6-azaspiro[3.4]octan-6-yl)-2,2-difluoropropan-1-ol] | < 200 | < 200 | < 200 | < 200 | 500 to 2000 | 500 to 2000
CS(=O)(=O)N1CCC(Nc2ncc3cccc(N4CC(F)(F)C5(CNC5)C4)c3n2)CC1 [Example 109, 8-(8,8-difluoro-2,6-diazaspiro[3.4]octan-6-yl)-N-(1-(methylsulfonyl)piperidin-4-yl)quinazolin-2-amine] | < 200 | < 200 | < 200 | < 200 | 500 to 2000 | 500 to 2000
CS(=O)(=O)N1CCC(Nc2ncc3cccc(C4CC5(CNCCO5)C4)c3n2)CC1 (stereo not drawn) [Example 110, N-(1-(methylsulfonyl)piperidin-4-yl)-8-(5-oxa-8-azaspiro[3.5]nonan-2-yl)quinazolin-2-amine] | < 200 | < 200 | < 200 | < 200 | 500 to 2000 | 500 to 2000
CS(=O)(=O)N1CCC(Nc2ncc3cccc(N4CC5(CNCC5(F)F)C4)c3n2)CC1 [Example 111, 8-(8,8-difluoro-2,6-diazaspiro[3.4]octan-2-yl)-N-(1-(methylsulfonyl)piperidin-4-yl)quinazolin-2-amine] | 500 to 2000 | < 200 | < 200 | < 200 | 500 to 2000 | 500 to 2000
CS(=O)(=O)N1CCC(Nc2ncc3cc(C(F)F)cc(C4CC5(C4)CN(CC(F)(F)CO)C5)c3n2)CC1 [Example 112, 3-(6-(6-(difluoromethyl)-2-((1-(methylsulfonyl)piperidin-4-yl)amino)quinazolin-8-yl)-2-azaspiro[3.3]heptan-2-yl)-2,2-difluoropropan-1-ol] | < 200 | < 200 | < 200 | < 200 | 200 to 500 | < 200

— patent publication US20240092761A1, “QUINAZOLINE COMPOUNDS AND METHODS OF USE” (IAMBIC THERAPEUTICS, INC., priority 2022, published 2024)
